Measurements: patent US20190315823A1, “SMALL CATIONIC ANTI-BIOFILM AND IDR PEPTIDES” (priority 2013, published 2019)
Ends that are not written are not given here.

How the values were obtained:
[1] = test system: methicillin resistant Staphylococcus aureus (MRSA) biofilm; settings: approximate peptide concentration […] (around 3 μg/ml); compared to untreated samples
In short: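 Peptide was present from inoculation onward, with bacteria seeded at 1/100 from overnight cultures into BM2 biofilm medium or Luria Broth. Crystal violet staining of surface-attached cells (A595) quantified biofilm reduction at 22–46 h. K. pneumoniae was additionally screened in a real-time Bioflux flow device for some peptides.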

[2] = test system: LPS-stimulated human peripheral blood mononuclear cells (IL1-β); assay type: cell-based; settings: Table 12, cells stimulated with 10 ng/ml LPS; for IL1β Production: LPS alone 1313 (HH2 derivatives), 1927 (1018 derivatives), 2455 (1002 and hybrid peptides) pg/ml
[3] = test system: human peripheral blood mononuclear cells (MCP-1); test: SPOT-synthesized derivative screen: production of chemokine MCP-1; assay type: cell-based; settings: Table 12, No LPS, human PBMC, peptide at ~18-24 μM; for MCP1: background subtracted 139 (HH2 derivatives), 170 (1018 derivatives), 242 (1002 and hybrid peptides) pg/ml
In short: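 MCP-1 was quantified by capture ELISA in cleared culture supernatants of treated human peripheral blood mononuclear cells. Cells came from heparinized volunteer blood via Ficoll gradient and were seeded at 0.75 to 1×10^6 cells/ml (37 °C, 5% CO2).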

Row | Substance | % Biofilm inhibition [1] | Fold change in IL1β relative to no peptide LPS stimulated cells [2] | IL1β Production [2] | Fold increase in MCP1 cf. untreated cells [3] | MCP1 [3]
1 | 1018-L12: single substituted 1018 peptide (VRLIVAVRIWRL-NH2) [Peptide 1018-L12] | 44% | 0.17 | 220 pg/mL | 1.2 | 29 pg/mL
2 | HH2-A10: single substituted HH2 peptide (VQLRIRVAVARA-NH2) | 53% | 1.70 | 2234 pg/mL | 2.5 | 258 pg/mL
3 | 1002-W6: single substituted 1002 peptide (VQRWLWVWRIRK-NH2) [Peptide 1002-W6] | 53% | 0.05 | 127 pg/mL | 0.9 | -36.2 pg/mL
4 | HH2-W9: single substituted HH2 peptide (VQLRIRVAWIRA-NH2) | 75% | 0.80 | 1050 pg/mL | 31 | 4995 pg/mL
5 | 1002-I4: single substituted 1002 peptide (VQRILIVWRIRK-NH2) [Peptide 1002-I4] | 62% | 0.09 | 213 pg/mL | 2.1 | 273.6 pg/mL
6 | 1018-W12: single substituted 1018 peptide (VRLIVAVRIWRW-NH2) [Peptide 1018-W12] | 65% | 0.34 | 441 pg/mL | 1.5 | 79 pg/mL
7 | HH2-W7: single substituted HH2 peptide (VQLRIRWAVIRA-NH2) | 70% | 0.88 | 1154 pg/mL | 9.2 | 1395 pg/mL
8 | 1002-I2: single substituted 1002 peptide (VIRWLIVWRIRK-NH2) [Peptide 1002-I2] | 70% | 0.05 | 127 pg/mL | 3.1 | 508.6 pg/mL
9 | 1002-Q10: single substituted 1002 peptide (VQRWLIVWRQRK-NH2) [Peptide 1002-Q10] | 39% | 0.05 | 127 pg/mL | 1.3 | 71.2 pg/mL
10 | 1002-K7: single substituted 1002 peptide (VQRWLIKWRIRK-NH2) [Peptide 1002-K7] | 28% | 0.12 | 302 pg/mL | 0.9 | -36.2 pg/mL
11 | HH2-V12: single substituted HH2 peptide (VQLRIRVAVIRV-NH2) | 65% | 0.85 | 1119 pg/mL | 33 | 5492 pg/mL
12 | 1002-Q5: single substituted 1002 peptide (VQRWQIVWRIRK-NH2) [Peptide 1002-Q5] | 48% | 0.07 | 180 pg/mL | 0.9 | -36.2 pg/mL
13 | 1018-W8: single substituted 1018 peptide (VRLIVAVWIWRR-NH2) [Peptide 1018-W8] | 43% | 0.34 | 448 pg/mL | 0.8 | -28 pg/mL
14 | HH2-R7: single substituted HH2 peptide (VQLRIRRAVIRA-NH2) | 3% | 1.49 | 1959 pg/mL | 1.6 | 98 pg/mL
15 | 1002-A9: single substituted 1002 peptide (VQRWLIVWAIRK-NH2) [Peptide 1002-A9] | 58% | 0.05 | 127 pg/mL | 14.4 | 3239.9 pg/mL
16 | HH2-V6: single substituted HH2 peptide (VQLRIVVAVIRA-NH2) | 39% | 0.53 | 694 pg/mL | 40 | 6624 pg/mL
17 | 1002-V12: single substituted 1002 peptide (VQRWLIVWRIRV-NH2) [Peptide 1002-V12] | 67% | 0.05 | 127 pg/mL | 1.3 | 76.4 pg/mL
18 | 1018-K5: single substituted 1018 peptide (VRLIKAVRIWRR-NH2) [Peptide 1018-K5] | 29% | 1.31 | 1722 pg/mL | 0.9 | -10 pg/mL
19 | 1002-L3: single substituted 1002 peptide (VQLWLIVWRIRK-NH2) [Peptide 1002-L3] | 59% | 0.05 | 127 pg/mL | 1.4 | 106.3 pg/mL
20 | HH2-G11: single substituted HH2 peptide (VQLRIRVAVIGA-NH2) | 72% | 0.99 | 1303 pg/mL | 2.0 | 177 pg/mL
21 | 1002-I5: single substituted 1002 peptide (VQRWIIVWRIRK-NH2) [Peptide 1002-I5] | 84% | 0.08 | 186 pg/mL | 24.2 | 5633.1 pg/mL
22 | HH2-G8: single substituted HH2 peptide (VQLRIRVGVIRA-NH2) | 54% | 1.02 | 1344 pg/mL | 1.9 | 157 pg/mL
23 | 1018-L4: single substituted 1018 peptide (VRLLVAVRIWRR-NH2) [Peptide 1018-L4] | 64% | 0.10 | 127 pg/mL | 0.9 | -10 pg/mL
24 | 1018-A11: single substituted 1018 peptide (VRLIVAVRIWAR-NH2) [Peptide 1018-A11] | 59% | 0.87 | 1148 pg/mL | 0.6 | -65 pg/mL
25 | HH2-L5: single substituted HH2 peptide (VQLRLRVAVIRA-NH2) | 58% | 0.88 | 1156 pg/mL | 1.6 | 97 pg/mL
26 | 1018-I8: single substituted 1018 peptide (VRLIVAVIIWRR-NH2) [Peptide 1018-I8] | 39% | 0.86 | 1125 pg/mL | 1.0 | 2 pg/mL
27 | HH2-Q8: single substituted HH2 peptide (VQLRIRVQVIRA-NH2) | 65% | 0.97 | 1279 pg/mL | 9.4 | 1421 pg/mL
28 | HH2-I3: single substituted HH2 peptide (VQIRIRVAVIRA-NH2) | 62% | 1.02 | 1336 pg/mL | 6.8 | 982 pg/mL
29 | 1002-A3: single substituted 1002 peptide (VQAWLIVWRIRK-NH2) [Peptide 1002-A3] | 65% | 0.05 | 127 pg/mL | 4.2 | 787.2 pg/mL
30 | 1002-R10: single substituted 1002 peptide (VQRWLIVWRRRK-NH2) [Peptide 1002-R10] | 15% | 0.05 | 127 pg/mL | 2.5 | 375.3 pg/mL
